Measured values: the supplement of paper PMC10702517
± gives the standard deviation.

Key:
[1] = chemical recovery from spiked human plasma; higher = better extraction; conditions: pooled human plasma
[2] = chemical recovery into PDMS from spiked human plasma; higher = better extraction; conditions: pooled human plasma, extraction method: PES with PDMS
[3] = chemical recovery by SPE of plasma after PDMS sampling; higher = better extraction; conditions: pooled human plasma, extraction method: HLB SPE of plasma after PES
[4] = extraction method: PES+SPE (3 d PDMS equilibration then HLB SPE)
[5] = extraction method: SPE only (HLB 96-well)
[6] = extraction method: SPE only (HLB 96-well), PES comparison experiment
[7] = extraction method: solvent precipitation (ACN + hexane)
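Wherever chemical recovery by SPE of plasma after PDMS sampling is given: over 400 spiked chemicals quantified by LC-HRMS or GC-HRMS via internal standard calibration, recovery relative to spike mix added to unspiked plasma extract to correct matrix effects.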

| SMILES | chemical recovery [1, 4] [%] | chemical recovery [1, 5] [%] | chemical recovery [1, 6] [%] | chemical recovery [1, 7] [%] | chemical recovery into PDMS ([2]; equilibration time (d): 1) [%] | chemical recovery by SPE of plasma ([3]; equilibration time (d): 1) [%] | chemical recovery by SPE of plasma ([3]; equilibration time (d): 3) [%] | chemical recovery by SPE of plasma ([3]; equilibration time (d): 6) [%] | chemical recovery into PDMS ([2]; equilibration time (d): 3) [%] | chemical recovery into PDMS ([2]; equilibration time (d): 6) [%] |
| --- | --- | --- | --- | --- | --- | --- | --- | --- | --- | --- |
| O=S(=O)(O)c1ccccc1 [Benzenesulfonic acid] | 1.83 ± 0.28 | 2.56 ± 1.3 | 8.52 ± 6 | 80.7 ± 8.4 | 0.00847 ± 0.015 | 3.18 ± 3.5 | 1.77 ± 0.98 | 2.93 ± 1.1 | – | – |
| c1ccc2c(c1)-c1cccc3c1c-2cc1ccccc13 [Benzo(b)fluoranthene] | – | 0.807 ± 0.61 | – | 36 ± 1.5 | – | – | 3.78 ± 9.3 | – | 93.1 ± 4.8 | 93.6 ± 18 |
| c1ccc2c(c1)Cc1cc3ccccc3cc1-2 [Benzo(b)fluorene] | 57.9 ± 6.2 | 1.4 ± 0.48 | 17.5 ± 3.4 | 69.1 ± 5.1 | – | 1.71 ± 1.6 | 2.82 ± 0.45 | 2.41 ± 0.48 | 107 ± 3.9 | 110 ± 13 |
| CCOC(=O)c1ccc(N)cc1 [Benzocain] | 32.9 ± 5.6 | 39.3 ± 3.4 | – | 64.9 ± 4.3 | 23.5 ± 1.9 | 14.6 ± 2.6 | 18.4 ± 1.5 | 14.4 ± 2.3 | 23.3 ± 1.7 | 26.3 ± 2.2 |
| COc1ccc(C(=O)c2ccccc2)c(O)c1 [Benzophenone-3] | 41.3 ± 8.9 | 28.9 ± 1.7 | 33.1 ± 5.5 | 65 ± 3.6 | 35.5 ± 1.5 | 1.5 ± 0.48 | 1.88 ± 0.31 | 1.41 ± 0.17 | 38.2 ± 2.1 | 38.6 ± 4.5 |
| CCCCC(=O)O[C@]1(C(=O)CO)[C@@H](C)C[C@H]2[C@@H]3CCC4=CC(=O)C=C[C@]4(C)[C@@]3(F)[C@@H](O)C[C@@]21C [Betamethasone-17-valerate] | – | – | 41.7 ± 7.8 | – | 12.9 ± 1.3 | – | 26.8 ± 4.2 | 19.1 ± 4.2 | 18.8 ± 1.3 | 20.1 ± 1.2 |
| CC(C)(Oc1ccc(CCNC(=O)c2ccc(Cl)cc2)cc1)C(=O)O [Bezafibrate] | 47.8 ± 3.6 | 45.5 ± 3.2 | 52.7 ± 4.8 | 74.9 ± 2.3 | 0.000935 ± 0.0016 | 52.7 ± 6.2 | 56.9 ± 2.6 | 53.6 ± 2.6 | 0.00082 ± 0.0014 | – |
| c1ccc(-c2ccc(C(c3ccccc3)n3ccnc3)cc2)cc1 (stereo not drawn) [Bifonazol] | – | – | 46.6 ± 10 | – | 38.6 ± 3.1 | 0.932 ± 0.2 | 0.479 ± 0.14 | 0.0513 ± 0.051 | 38.5 ± 4.5 | 35.7 ± 4.3 |
| CC(C)NCC(O)COc1ccc(COCCOC(C)C)cc1 (stereo not drawn) [Bisoprolol] | 26.7 ± 3.1 | 42.2 ± 4 | 47.4 ± 6.3 | 70.7 ± 1.7 | 0.0185 ± 0.032 | 32.2 ± 3.3 | 34.4 ± 3.7 | 31.1 ± 2.7 | – | – |
| O=C(Nc1ccccc1-c1ccc(Cl)cc1)c1cccnc1Cl [Boscalid] | 63.9 ± 10 | 59.7 ± 2.4 | 48.2 ± 7.4 | 81.6 ± 1.8 | 41.6 ± 1.9 | 4.82 ± 0.75 | 5.2 ± 0.48 | 3.13 ± 0.17 | 45.5 ± 2.2 | 44.7 ± 0.64 |
| COc1ccccc1Oc1c(NS(=O)(=O)c2ccc(C(C)(C)C)cc2)nc(-c2ncccn2)nc1OCCO [Bosentan] | – | – | 49.7 ± 11 | 75.4 ± 4.9 | – | 40.6 ± 4.4 | 48.7 ± 5.1 | 42.2 ± 6.5 | 0.517 ± 0.46 | 0.935 ± 0.25 |
| N#Cc1cc(Br)c(O)c(Br)c1 [Bromoxynil] | 51 ± 4.9 | 43.9 ± 2.5 | 59.5 ± 6.2 | 68.2 ± 6.9 | – | 58.5 ± 9.5 | 62.9 ± 3.1 | 58.6 ± 2.6 | 0.00783 ± 0.014 | – |
| CCCC1O[C@@H]2C[C@H]3[C@@H]4CCC5=CC(=O)C=C[C@]5(C)[C@H]4[C@@H](O)C[C@]3(C)[C@]2(C(=O)CO)O1 (stereo partly drawn) [Budesonide] | – | – | 50.5 ± 7 | – | 4.21 ± 7.3 | 35.3 ± 6.4 | – | 25 ± 2.6 | – | 22.6 ± 1.5 |
| CCCCc1c(C)nc(NCC)nc1OS(=O)(=O)N(C)C [Bupirimate] | – | – | 48.9 ± 8.9 | – | 40.3 ± 1.4 | – | 0.147 ± 0.26 | – | 43.9 ± 4.2 | 41.4 ± 2.6 |
| CCOc1nc2cccc(C(=O)O)c2n1Cc1ccc(-c2ccccc2-c2nnn[nH]2)cc1 [Candesartan] | 41.3 ± 6.7 | 42 ± 8 | 36.9 ± 3.9 | 58.8 ± 12 | – | 48 ± 8.7 | 50.1 ± 3 | 47.8 ± 4.2 | – | 0.00245 ± 0.0094 |
| NC(=O)N1c2ccccc2C=Cc2ccccc21 [Carbamazepine] | 61.4 ± 6.2 | 48.5 ± 5.5 | 52.6 ± 6.1 | 72.3 ± 2.5 | 22.2 ± 1.2 | 25.4 ± 2.9 | 21.1 ± 2.3 | 13.6 ± 1.4 | 28.4 ± 2.1 | 30.7 ± 1.8 |
| COC(=O)Nc1nc2ccccc2[nH]1 [Carbendazim] | 55.8 ± 5.5 | 58.8 ± 4.2 | 51.3 ± 6.5 | 76.8 ± 3.4 | 16.9 ± 1.1 | 31.6 ± 3.2 | 24.5 ± 2.5 | 10.6 ± 9.6 | 25.7 ± 2.7 | 27.6 ± 2.8 |
| CCNC(=O)[C@@H](C)OC(=O)Nc1ccccc1 [Carbetamide] | 50.4 ± 4.4 | 47.2 ± 3.9 | 53.1 ± 6.2 | 69.9 ± 2.7 | 8.92 ± 0.88 | 49.6 ± 7.6 | 45.6 ± 4.6 | 37.2 ± 8 | 14.1 ± 3.2 | 16.5 ± 2.4 |
| Cc1ccc(-c2cc(C(F)(F)F)nn2-c2ccc(S(N)(=O)=O)cc2)cc1 [Celecoxib] | – | 33.2 ± 6.9 | 47.6 ± 5 | 42.7 ± 2.1 | 1.77 ± 0.12 | 45.7 ± 5.5 | 39.7 ± 1.8 | 32.4 ± 1.7 | 6.98 ± 2.7 | 8.5 ± 3.5 |
| CCOP(=O)(OCC)OC(=CCl)c1ccc(Cl)cc1Cl [Chlorfenvinphos] | – | – | 49.5 ± 8.3 | – | 43.3 ± 1.2 | 0.151 ± 0.26 | – | – | 44.3 ± 3.6 | 44.1 ± 0.92 |
| Nc1cnn(-c2ccccc2)c(=O)c1Cl [Chloridazon] | 44.6 ± 2.8 | 37.3 ± 3 | 54.9 ± 6.3 | 73 ± 2.7 | 4.58 ± 0.31 | 53.7 ± 8.1 | 57.1 ± 3.2 | 51.8 ± 4.5 | 7.42 ± 1.7 | 8.14 ± 1.6 |
| Oc1ccc(Cl)cc1Cc1ccccc1 [Chlorophene] | 41.5 ± 3.1 | 36.9 ± 4.1 | 48.5 ± 7.9 | 76.9 ± 7.2 | 13.4 ± 0.41 | 36.9 ± 6.1 | 29.2 ± 5.9 | 28.6 ± 5.6 | 15.4 ± 0.93 | 15 ± 0.42 |
| Cc1ccc(NC(=O)N(C)C)cc1Cl [Chlorotoluron] | 61.6 ± 12 | 46 ± 3.5 | 50.6 ± 6.2 | 74.4 ± 2.2 | 32 ± 1.2 | 10.3 ± 0.88 | 9.6 ± 1.2 | 5.83 ± 0.28 | 34.9 ± 1.4 | 36.3 ± 0.76 |
| CN(C)C(=O)Nc1ccc(Oc2ccc(Cl)cc2)cc1 [Chloroxuron] | – | 36.4 ± 1.9 | 49.8 ± 7.3 | – | 37.3 ± 1.7 | 11 ± 2.2 | 7.37 ± 0.66 | 4.53 ± 0.44 | 43.6 ± 2.7 | 42.8 ± 0.94 |
| Cc1cc(C2CCCCC2)n(O)c(=O)c1 [Ciclopirox] | – | – | 46.2 ± 16 | – | 22 ± 5 | 2.83 ± 1.3 | 0.638 ± 1.1 | 0.232 ± 0.4 | 20 ± 2.6 | 21.7 ± 2.5 |
